Structures are written as SMILES.

Test [1] can be described thus: Induction of rat beta cell proliferation after 3 days relative to control. The format is functional, Pancreatic beta cell.
For test [2], the species on record is Rattus norvegicus. Put plainly: Increase in rat beta cell mass in rat T1DM model after 45 days. The format is functional.
The nature of test [3]: Induction of rat beta cell proliferation assessed as increase in PDX1 expressing cells relative to control. The format is functional, Pancreatic beta cell.

Turning to `COC(=O)C1=C(C)NC(C)=C([N+](=O)[O-])C1c1ccccc1C(F)(F)F` (centres undefined), the “fold change (FC)” value in test [1] came to 2.5.

Regarding `CN1CCN(Cc2ccc(NC(=O)Cc3ccc(Oc4cc(NC(=O)C5CC5)ncn4)cc3)cc2C(F)(F)F)CC1`, the Activity is listed as 50% in test [2] and “<=4%” in test [1].

Regarding `Nc1ncnc2nc(-c3ccc(N4CCOCC4)nc3)cc(-c3cccc(Br)c3)c12`, in test [3], the “fold change (FC)” value is 2.

The values above are taken from ChEMBL document CHEMBL3632614, “Small molecules that promote regenerative repair for pancreatic and cardiovascular health” (2015).
